From US20110028401A1, “CRIPTO BLOCKING MOLECULES AND THERAPEUTIC USES THEREOF” (CONSIGLIO NAZIONALE DELLE RICERCHE, priority 2009, published 2011)

What was measured:
ALK-4 receptor = molecular target: T1, ALK-4 receptor (Homo sapiens, UniProt P36896); assay: ELISA binding of ALK-4 receptor to plate-coated peptide; conditions: peptide coated at 50 μM; ALK-4 50 to 200 ng/ml
T1 construct: the extracellular domain of ALK-4 receptor fused to human Fc (R&D Systems); purchased R&D Systems
T1 sequence (P36896 24-126 limits assumed): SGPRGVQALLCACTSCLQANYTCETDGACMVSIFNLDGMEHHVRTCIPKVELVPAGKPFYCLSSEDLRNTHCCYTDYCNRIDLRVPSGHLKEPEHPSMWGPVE
Protocol: To evaluate the binding of Cripto BP to either Cripto or ALK-4 receptor, BP or control peptides (CP; 50 μM) were coated on the surface of a 96-well microtiter plate and incubated over night at 4° C. Wells were washed five times with PBS Tween (PBT) and the aspecific sites blocked for 3 h at RT with 1% Bovine Serum Albumin (BSA) in PBS, 180 μL/well. Wells were washed as above, and the recombinant form of either ALK-4-humanFc chimeric receptor or Cripto protein in PBT were added at the indicated concentrations and incubated for 1 h at 37° C. followed by 1 hr at RT. After washing with PBT, to evaluate the binding of Cripto to 26-23-23, rabbit anti-Cripto IgG (6 μg/ml) were added to the plates and incubated 1 h at 37° C. and 1 hr at RT. After washing in PBT, a goat anti-rabbit […] (Santa Crutz) was added to the plate (0.3 μg/ml) and incubated 1 h at RT. Finally, the plate was developed as reported above. To evaluate the binding of ALK4 to 26-23-23, the extracellular domain of ALK-4 receptor fused to human Fc (R&D Systems) was added at the indicated concentrations and a goat anti-human Fc (Jackson ImmunoResearch; 1:1000) was used.

[1] = test system: Cripto-induced Smad2 phosphorylation; assay: Smad2 phosphorylation assay (Western blot) in cripto-/- embryoid bodies; type: cell-based, mouse
Protocol: Two day-old cripto^−/− Embryoid Bodies (EBs) were serum starved for 3 hrs in DMEM (GIBCO) without LIF and in low serum (0.5% FBS). Following starvation, EBs were incubated for 20 min at 37° C. with recombinant Cripto protein (0.5 µg/ml) either alone or in the presence of the indicated amount of peptides. Finally, EBs were dissolved in Laemmli lysis buffer and analyzed by Western blot using the Trans-Blot Semi-dry System (BIO-RAD), following manufacturer's instruction. Anti-Smad2 and anti-phospho-Smad2 (Ser465/467) Antibodies (Cell Signalling Technology) were used, following the manufacturer's instructions.

wild-type EBs = assay: Neuronal differentiation of wild-type EBs, βIII-tubulin immunofluorescence grades; type: cell-based, mouse; conditions: 25 μM peptide, 13 day-old EBs, mean±SD
Protocol: Undifferentiated ESCs were cultured as previously described^55.
Immunofluorescence analysis on adherent EBs, dopaminergic differentiated ESC and striatal grafts were performed as previously described^29, 35. The following primary antibodies were used: mouse anti-βIII-tubulin (Tuj1, 1:1000, Promega); anti-βIII tubulin (Sigma; 1:400), rabbit anti-tyrosine hydroxylase (TH, 1:200, PelFreez); mouse anti-TH (1:500, Chemicon); Nurr-1 (1:250, Santa Cruz); rabbit anti-Pitx3 (1:200, InVitrogen), rabbit anti-GIRK-2 (1:100, Chemicon); rat anti-DAT (1:1000, Chemicon); rabbit anti-5HT (1:200, Biogenesis); rabbit anti-NET (1:20, Chemicon), rabbit anti-GABA (1:500, Sigma); rabbit anti-Ki67 (1:1000, Neomarkers); and rat anti-Nestin (1:100, Developmental Studies Hybridoma Bank). Appropriate fluorophore conjugated secondary antibodies were used for visualization: (Cyanin-2, Cy3 and Cy5, 1:500, Jackson ImmunoResearch or Alexa-488, Alexa-594 and Alexa-633, 1:200, Molecular Probes).
Thus, if specific and effective, Cripto BP should be able to re-direct ESC fate and promote neural induction and neurogenesis. To address this issue, 2 day-old wild-type EBs were treated as described above, with either control (CP), dimeric (DP) or blocking (BP) peptides and both morphological and immunofluorescence analysis were performed on 13 day-old EBs. […]

## C[S+]([O-])CCC(N)C(=O)N[C@@H](CSCc1ccccc1)C(=O)N[C@@H](CSCc1ccccc1)C(=O)N[C@@H](CCCCNC(=O)[C@H](CSCc1ccccc1)NC(=O)[C@H](CSCc1ccccc1)NC(=O)[C@@H](N)CC[S+](C)[O-])C(=O)N[C@@H](CCCCNC(=O)[C@H](CCCCNC(=O)[C@H](CSCc1ccccc1)NC(=O)[C@H](CSCc1ccccc1)NC(=O)[C@@H](N)CC[S+](C)[O-])NC(=O)[C@H](CSCc1ccccc1)NC(=O)[C@H](CSCc1ccccc1)NC(=O)[C@@H](N)CC[S+](C)[O-])C(=O)NCC(=O)O (some centres unmarked) [Cripto BP]
ALK-4 receptor
  binding of ALK-4 receptor to immobilized peptide: not ALK-4 specifically recognized
[1]; 2 day-old cripto−/− EBs, Cripto 0.5 μg/ml, peptide 2.5 μM and 25 μM
  effect on Cripto-induced Smad2 phosphorylation: inhibited
[1]; peptide 25 μM (125× molar excess)
  effect on Cripto-induced Smad2 phosphorylation: completely blocked
wild-type EBs
  EBs with Grade 0 phenotype (absence of neurons): 17.4%±1.15
  EBs with Grade 3 phenotype (full neuronal differentiation): 45.6%±5.2
